Test results as given in patent publication US5596018A, “Antiviral agents against aids-causing virus” (priority 1988, dated 1997).

How the values were obtained:
HIV-1 [1] = experiment: Anti-HIV-1 assay in HUT-78 cells, expression of viral antigen; assay type: cell-based; settings: for SI: Selective index / EC50: HUT-78 cells; for EC50: Human immunodeficiency virus 1, HuT78, HIV-1 antigen expression, read-out: ED50 a: Antiviral 50% effective dose
HIV-1 [2] = experiment: Anti-HIV-1 assay in MT-4 cells, inhibition of viral cytopathogenicity; assay type: cell-based; settings: for EC50: Human immunodeficiency virus 1, MT4, HIV-1, cytopathogenic effect, read-out: ED50 a: Antiviral 50% effective dose; for EC50 / SI: Selective index: MT-4 cells
in vitro = settings: human
Procedure: Anti-HIV assays of fuchsinic acid were carried out in cultures of MT-4 and HUT-78 cells infected with AIDS-causing viruses such as HIV type 1 (HIV-1) and HIV type 2 (HIV-2), taking cytopathogenicity as a parameter of the inhibitory effect on replication of the viruses. The anti-HIV activity was also measured by monitoring the expression of viral antigen.

HIV-2 = experiment: Anti-HIV-2 assay in MT-4 cells, inhibition of viral cytopathogenicity; assay type: cell-based; settings: Human immunodeficiency virus 2, MT4; HIV-2, MT-4 cells, cytopathogenic effect; read-out: 50% effective dose (ED50) for HIV-2

Row | Compound | SI: Selective index (HIV-1 [1]) | EC50 (HIV-1 [1]) [µM] | EC50 (HIV-1 [2]) [µM] | SI: Selective index (HIV-1 [2]) | CC50 (in vitro; hut-78 cells) [µM] | CC50 (in vitro; mt-4 cells) [µM] | Inhibition of HIV-1 antigen (HIV-1 [1]; at 25 μM) | Inhibition of cytopathogenic effect (CPE) (HIV-1 [2]; HIV-1, MT-4 cells, at 125 μM (FIG. 1-A)) | EC50 (HIV-2) [µM]
1 | O=C1C=CC(=C(c2ccc(O)cc2)c2ccc(O)cc2)C=C1 [Aurin] | < 1 | > 2.3 | > 2.6 | < 1 | 2.3 | 2.6 | – | – | –
2 | O=C(O)C1=CC(=C(c2ccc(O)c(C(=O)O)c2)c2ccc(O)c(C(=O)O)c2)C=CC1=O [ATA, Aurintricarboxylic acid] | 19 | 0.69 | 5 | 118 | 13 | 590 | – | – | –
3 | Cc1ccc(C(=O)Nc2ccc(S(=O)(=O)O)c3cc(S(=O)(=O)O)cc(S(=O)(=O)O)c23)cc1NC(=O)c1cccc(NC(=O)Nc2cccc(C(=O)Nc3cc(C(=O)Nc4ccc(S(=O)(=O)O)c5cc(S(=O)(=O)O)cc(S(=O)(=O)O)c45)ccc3C)c2)c1 [Suramin] | 3.1 | 18 | 32 | 20 | 55 | 625 | – | – | –
4 | Cc1cc(C(=C2C=CC(=N)C(S(=O)(=O)O)=C2)c2ccc(N)c(S(=O)(=O)O)c2)cc(S(=O)(=O)O)c1N [Fuchsinic acid] | < 39 | 16 | 42 | < 74 | > 625 | > 3120 | inhibited | complete inhibition | 63
